# Assay results published in article PMC4477702 (The Biochemical journal, 2015).
# Assays:
# [1] = biological target: T1, Arabidopsis (At) COG3236 domain of RIBR (Arabidopsis thaliana, UniProt Q9STY4); test: HPLC-UV product formation; assay type: biochemical; conditions: pH 8.0, 22°C, 1 h
# T1 sequence (Q9STY4 405-599 limits assumed): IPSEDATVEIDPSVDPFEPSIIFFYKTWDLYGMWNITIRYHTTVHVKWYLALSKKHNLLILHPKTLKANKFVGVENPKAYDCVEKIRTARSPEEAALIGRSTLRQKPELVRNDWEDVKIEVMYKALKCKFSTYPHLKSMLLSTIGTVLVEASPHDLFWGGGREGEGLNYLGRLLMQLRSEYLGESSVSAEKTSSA
# [2] = biological target: T2, N. punctiforme (Np) COG3236 (Nostoc punctiforme, UniProt B2J4E5); test: HPLC-UV product formation; assay type: biochemical; conditions: pH 8.0, 22°C, 1 h
# T2 sequence (B2J4E5 1-156): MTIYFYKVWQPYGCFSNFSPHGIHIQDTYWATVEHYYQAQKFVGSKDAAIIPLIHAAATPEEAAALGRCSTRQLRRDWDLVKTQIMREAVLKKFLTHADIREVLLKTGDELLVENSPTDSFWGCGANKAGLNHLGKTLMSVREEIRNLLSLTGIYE
smiles,measurement,setting,value
"Nc1nc(N[C@@H]2O[C@H](COP(=O)(O)O)[C@@H](O)[C@H]2O)c(N)c(=O)[nH]1 (mixture of isomers) [compound 1, 2,5-diamino-6-ribosylamino-4(3H)-pyrimidinone 5′-phosphate]",HPLC-UV product formation; diacetyl derivatization,"[1]; 3 mM substrate, 30 μg protein",All five COG3236 proteins gave rise to a new HPLC peak when mixed with intermediate
same,HPLC-UV product formation,"[2]; 3 mM substrate, 30 μg protein",All five COG3236 proteins gave rise to a new HPLC peak when mixed with intermediate
"Nc1c(N[C@@H]2O[C@H](COP(=O)(O)O)[C@@H](O)[C@H]2O)[nH]c(=O)[nH]c1=O (mixture of isomers) [compound 2, 5-amino-6-ribosylamino-2,4(1H,3H)-pyrimidinedione 5′-phosphate]",HPLC-UV product formation; diacetyl derivatization,"[1]; 2.4 mM substrate, 0.1 μg protein",All five COG3236 proteins gave rise to a new HPLC peak when mixed with intermediate
same,HPLC-UV product formation,"[2]; 2.4 mM substrate, 1 μg protein",All five COG3236 proteins gave rise to a new HPLC peak when mixed with intermediate
